Assays:
Test in all cases: relative viability (nuclei count vs DMSO), 5 days (fraction); higher = more cells survive
[1] = compound: Cc1ccc(F)c(NC(=O)Nc2ccc(-c3cccc4[nH]nc(N)c34)cc2)c1 [Linifanib] + O=C(c1cc(Cc2n[nH]c(=O)c3ccccc23)ccc1F)N1CCN(C(=O)C2CC2)CC1 [Olaparib] (partner 8 µM)
Outline: (§1)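 Nuclei were stained with Hoechst during a one-step fixation (final 0.05% Triton X-100, 1% formaldehyde, 1 ug/ml Hoechst) carried out 5 days after dosing, then counted on 4× images. The cells, lung cancer lines in 1536-well plates, had been dosed by pin tool the day after seeding with one drug alone or a fixed anchor-drug dose plus five library-drug doses (not always all listed) in √10 steps. Relative viability is the nuclei count in treated wells divided by that in vehicle wells, and each value is the median of duplicate plates.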

[2] = compound: Cc1ccc(F)c(NC(=O)Nc2ccc(-c3cccc4[nH]nc(N)c34)cc2)c1 [Linifanib] + CS(=O)(=O)N1CCN(Cc2cc3nc(-c4cccc5[nH]ncc45)nc(N4CCOCC4)c3s2)CC1 [Pictilisib] (partner 1 µM)
Outline: as §1

[3] = compound: Cc1ccc(F)c(NC(=O)Nc2ccc(-c3cccc4[nH]nc(N)c34)cc2)c1 [Linifanib] + CS(=O)(=O)CCNCc1ccc(-c2ccc3ncnc(Nc4ccc(OCc5cccc(F)c5)c(Cl)c4)c3c2)o1 [Lapatinib] (partner 2 µM)
Outline: as §1

[4] = compound: Cc1ccc(F)c(NC(=O)Nc2ccc(-c3cccc4[nH]nc(N)c34)cc2)c1 [Linifanib] + CC(C)C[C@H](NC(=O)[C@H](Cc1ccccc1)NC(=O)c1cnccn1)B(O)O [Bortezomib] (partner 0.002 µM)
Outline: as §1

[5] = compound: Cc1ccc(F)c(NC(=O)Nc2ccc(-c3cccc4[nH]nc(N)c34)cc2)c1 [Linifanib] + O=C(CCCCCCC(=O)Nc1ccccc1)NO [Vorinostat] (partner 1 µM)
Outline: as §1

[6] = compound: Cc1ccc(F)c(NC(=O)Nc2ccc(-c3cccc4[nH]nc(N)c34)cc2)c1 [Linifanib] + COc1cc2c(Oc3ccc(NC(=O)C4(C(=O)Nc5ccc(F)cc5)CC4)cc3F)ccnc2cc1OCCCN1CCOCC1 [Foretinib] (partner 0.25 µM)
Outline: as §1

[7] = compound: Cc1ccc(F)c(NC(=O)Nc2ccc(-c3cccc4[nH]nc(N)c34)cc2)c1 [Linifanib] + C[C@]1(O)C[C@@H](c2nc(-c3ccc4ccc(-c5ccccc5)nc4c3)c3c(N)nccn32)C1 [Linsitinib] (partner 1 µM)
Outline: as §1

[8] = compound: Cc1ccc(F)c(NC(=O)Nc2ccc(-c3cccc4[nH]nc(N)c34)cc2)c1 [Linifanib] + C[C@@H](Oc1cc(-c2cnn(C3CCNCC3)c2)cnc1N)c1c(Cl)ccc(F)c1Cl [Crizotinib] (partner 1 µM)
Outline: as §1

[9] = compound: Cc1ccc(F)c(NC(=O)Nc2ccc(-c3cccc4[nH]nc(N)c34)cc2)c1 [Linifanib] + CC1(C)CCC(c2ccc(Cl)cc2)=C(CN2CCN(c3ccc(C(=O)NS(=O)(=O)c4ccc(N[C@H](CCN5CCOCC5)CSc5ccccc5)c(S(=O)(=O)C(F)(F)F)c4)cc3)CC2)C1 [Navitoclax] (partner 0.5 µM)
Outline: as §1

[10] = compound: Cc1ccc(F)c(NC(=O)Nc2ccc(-c3cccc4[nH]nc(N)c34)cc2)c1 [Linifanib] + Cc1nc(NC(=O)N2CCC[C@H]2C(N)=O)sc1-c1ccnc(C(C)(C)C(F)(F)F)c1 [Alpelisib] (partner 2 µM)
Outline: as §1

[11] = compound: Cc1ccc(F)c(NC(=O)Nc2ccc(-c3cccc4[nH]nc(N)c34)cc2)c1 [Linifanib]
Outline: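 Lung cancer cell lines in 1536-well plates were exposed by pinning to five library-drug doses (not always all listed) √10 apart, following an overnight hold at 37 °C. MetaXpress counted Hoechst-stained nuclei from 4× images taken after 5 days without medium change. Viability is the median ratio of treated-well to vehicle-well nuclei across plates. Plates required control CV below 25% and at least one doubling.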

[12] = compound: Cc1ccc(F)c(NC(=O)Nc2ccc(-c3cccc4[nH]nc(N)c34)cc2)c1 [Linifanib] + NC(=O)Nc1cc(-c2cccc(F)c2)sc1C(=O)N[C@H]1CCCNC1 [AZD7762] (partner 0.2 µM)
Outline: as §1

[13] = compound: Cc1ccc(F)c(NC(=O)Nc2ccc(-c3cccc4[nH]nc(N)c34)cc2)c1 [Linifanib] + Cc1nc(Nc2ncc(C(=O)Nc3c(C)cccc3Cl)s2)cc(N2CCN(CCO)CC2)n1 [Dasatinib] (partner 0.075 µM)
Outline: as §1

[14] = compound: Cc1ccc(F)c(NC(=O)Nc2ccc(-c3cccc4[nH]nc(N)c34)cc2)c1 [Linifanib] + N=C(N)NC(=N)NCCc1ccccc1 [Phenformin] (partner 250 µM)
Outline: as §1

[15] = compound: Cc1ccc(F)c(NC(=O)Nc2ccc(-c3cccc4[nH]nc(N)c34)cc2)c1 [Linifanib] + Cc1cc(Nc2cc(N3CCN(C)CC3)nc(Sc3ccc(NC(=O)C4CC4)cc3)n2)n[nH]1 [Tozasertib] (partner 0.1 µM)
Outline: as §1

[16] = compound: Cc1ccc(F)c(NC(=O)Nc2ccc(-c3cccc4[nH]nc(N)c34)cc2)c1 [Linifanib] + Nc1nc2[nH]cc(CCc3ccc(C(=O)N[C@@H](CCC(=O)O)C(=O)O)cc3)c2c(=O)[nH]1 [Pemetrexed] (partner 0.2 µM)
Outline: as §1

[17] = compound: Cc1ccc(F)c(NC(=O)Nc2ccc(-c3cccc4[nH]nc(N)c34)cc2)c1 [Linifanib] + COc1cccc2cc(-c3nc([C@H]4CC[C@H](C(=O)O)CC4)n4ncnc(N)c34)[nH]c12 [OSI-027] (partner 0.5 µM)
Outline: as §1

[18] = compound: Cc1ccc(F)c(NC(=O)Nc2ccc(-c3cccc4[nH]nc(N)c34)cc2)c1 [Linifanib] + Nc1ncn([C@H]2C[C@H](O)[C@@H](CO)O2)c(=O)n1 [Decitabine] (partner 2 µM)
Outline: as §1

[19] = compound: Cc1ccc(F)c(NC(=O)Nc2ccc(-c3cccc4[nH]nc(N)c34)cc2)c1 [Linifanib] + CC(=O)Nc1cccc(-n2c(=O)n(C3CC3)c(=O)c3c(Nc4ccc(I)cc4F)n(C)c(=O)c(C)c32)c1 [Trametinib] (partner 0.02 µM)
Outline: as §1

[20] = compound: Cc1ccc(F)c(NC(=O)Nc2ccc(-c3cccc4[nH]nc(N)c34)cc2)c1 [Linifanib] + CCNC(=O)c1noc(-c2cc(C(C)C)c(O)cc2O)c1-c1ccc(CN2CCOCC2)cc1 [Luminespib] (partner 0.01 µM)
Outline: as §1

[21] = compound: Cc1ccc(F)c(NC(=O)Nc2ccc(-c3cccc4[nH]nc(N)c34)cc2)c1 [Linifanib] + CC(=O)c1c(C)c2cnc(Nc3ccc(N4CCNCC4)cn3)nc2n(C2CCCC2)c1=O [Palbociclib] (partner 0.5 µM)
Outline: as §1

Work on IA-LM yielded a relative viability ([1]; first compound 0.03162 µM) of 0.901, a relative viability ([1]; first compound 0.1 µM) of 0.81 and a relative viability ([1]; first compound 0.3162 µM) of 0.8. It also gave a relative viability ([2]; first compound 0.03162 µM) of 0.313, a relative viability ([2]; first compound 0.1 µM) of 0.319 and a relative viability ([2]; first compound 0.3162 µM) of 0.338. It also gave a relative viability ([3]; first compound 0.03162 µM) of 0.718, a relative viability ([3]; first compound 0.3162 µM) of 0.713 and a relative viability ([4]; first compound 0.03162 µM) of 0.752. For the same cell line, the relative viability ([4]; first compound 0.1 µM) was 0.974, the relative viability ([4]; first compound 0.3162 µM) was 0.846 and the relative viability ([5]; first compound 0.03162 µM) was 0.841. It also gave a relative viability ([5]; first compound 0.1 µM) of 0.906, a relative viability ([5]; first compound 0.3162 µM) of 1.33 and a relative viability ([6]; first compound 0.03162 µM) of 1.2. It also gave a relative viability ([6]; first compound 0.1 µM) of 1.18, a relative viability ([6]; first compound 0.3162 µM) of 1.15 and a relative viability ([7]; first compound 0.03162 µM) of 0.611. The relative viability ([7]; first compound 0.1 µM) was 0.46, the relative viability ([7]; first compound 0.3162 µM) was 0.55 and the relative viability ([8]; first compound 0.03162 µM) was 0.806. It also gave a relative viability ([8]; first compound 0.3162 µM) of 0.768, a relative viability ([9]; first compound 0.03162 µM) of 0.855 and a relative viability ([9]; first compound 0.1 µM) of 0.947. The relative viability ([9]; first compound 0.3162 µM) was 0.656, the relative viability ([10]; first compound 0.03162 µM) was 0.588 and the relative viability ([10]; first compound 0.1 µM) was 0.872. It also gave a relative viability ([10]; first compound 0.3162 µM) of 0.643, a relative viability ([11]; 0.03162 µM) of 0.983 and a relative viability ([11]; 0.1 µM) of 0.84. The relative viability ([11]; 0.3162 µM) was 0.914.

NCI-H522 was tested, and the relative viability ([1]; first compound 0.03162 µM) was 0.555, the relative viability ([1]; first compound 0.1 µM) was 0.693 and the relative viability ([1]; first compound 0.3162 µM) was 0.667. The relative viability ([12]; first compound 0.03162 µM) was 0.879, the relative viability ([12]; first compound 0.1 µM) was 0.804 and the relative viability ([12]; first compound 0.3162 µM) was 0.809. The relative viability ([13]; first compound 0.03162 µM) was 0.862, the relative viability ([13]; first compound 0.1 µM) was 0.868 and the relative viability ([13]; first compound 0.3162 µM) was 0.871. For the same cell line, the relative viability ([5]; first compound 0.03162 µM) was 0.851, the relative viability ([5]; first compound 0.1 µM) was 0.88 and the relative viability ([5]; first compound 0.3162 µM) was 0.929. For the same cell line, the relative viability ([14]; first compound 0.03162 µM) was 0.716, the relative viability ([14]; first compound 0.1 µM) was 0.647 and the relative viability ([14]; first compound 0.3162 µM) was 0.551. For the same cell line, the relative viability ([15]; first compound 0.03162 µM) was 0.556, the relative viability ([15]; first compound 0.1 µM) was 0.542 and the relative viability ([15]; first compound 0.3162 µM) was 0.474. The relative viability ([16]; first compound 0.03162 µM) was 0.945, the relative viability ([16]; first compound 0.1 µM) was 0.798 and the relative viability ([16]; first compound 0.3162 µM) was 1.06. The relative viability ([17]; first compound 0.03162 µM) was 0.815, the relative viability ([17]; first compound 0.1 µM) was 0.721 and the relative viability ([17]; first compound 0.3162 µM) was 0.719. For the same cell line, the relative viability ([18]; first compound 0.03162 µM) was 0.613, the relative viability ([18]; first compound 0.1 µM) was 0.703 and the relative viability ([18]; first compound 0.3162 µM) was 0.759. For the same cell line, the relative viability ([19]; first compound 0.03162 µM) was 0.643, the relative viability ([19]; first compound 0.1 µM) was 0.713 and the relative viability ([19]; first compound 0.3162 µM) was 0.736. The relative viability ([20]; first compound 0.03162 µM) was 1.18, the relative viability ([20]; first compound 0.1 µM) was 0.98 and the relative viability ([20]; first compound 0.3162 µM) was 1.13. The relative viability ([21]; first compound 0.03162 µM) was 1.05, the relative viability ([21]; first compound 0.1 µM) was 0.954 and the relative viability ([21]; first compound 0.3162 µM) was 0.995. It also gave a relative viability ([11]; 0.03162 µM) of 0.943, a relative viability ([11]; 0.1 µM) of 1.02 and a relative viability ([11]; 0.3162 µM) of 0.995.

Reference: the supplement of paper PMC10307832
